Where “and” joins values, the source holds several entries; their conditions need not be identical. Equal entries are not always repeated.
How the values were obtained:
α4β2 nicotinic receptor [1] = target: T1, α4β2 nicotinic receptor (Homo sapiens, UniProt P17787+P43681); experiment: Two-electrode voltage-clamp recording of ACh-induced currents in X. laevis oocytes expressing recombinant α4β2 nicotinic receptor; format: cell-based
T1 construct: expressed in transfected cells; host or cells: Xenopus laevis oocytes (nuclear cDNA injection)
T1 sequence (P43681 29-627 limits assumed): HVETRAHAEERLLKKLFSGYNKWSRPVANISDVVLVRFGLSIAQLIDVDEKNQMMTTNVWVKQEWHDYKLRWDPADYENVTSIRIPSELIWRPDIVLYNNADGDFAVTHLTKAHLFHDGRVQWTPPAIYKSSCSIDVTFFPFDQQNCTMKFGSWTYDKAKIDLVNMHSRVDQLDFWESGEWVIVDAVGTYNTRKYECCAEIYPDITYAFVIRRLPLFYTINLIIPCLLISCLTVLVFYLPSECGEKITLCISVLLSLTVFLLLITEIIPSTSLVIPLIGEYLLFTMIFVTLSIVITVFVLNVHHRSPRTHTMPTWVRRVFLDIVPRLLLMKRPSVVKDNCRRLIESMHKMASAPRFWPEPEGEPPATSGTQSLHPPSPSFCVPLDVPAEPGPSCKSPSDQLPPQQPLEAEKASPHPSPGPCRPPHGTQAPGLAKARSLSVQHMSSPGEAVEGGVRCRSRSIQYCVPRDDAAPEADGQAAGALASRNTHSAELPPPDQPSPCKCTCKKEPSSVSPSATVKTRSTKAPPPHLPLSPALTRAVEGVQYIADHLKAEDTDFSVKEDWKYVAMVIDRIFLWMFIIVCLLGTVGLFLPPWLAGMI
T1 sequence (P17787 26-502): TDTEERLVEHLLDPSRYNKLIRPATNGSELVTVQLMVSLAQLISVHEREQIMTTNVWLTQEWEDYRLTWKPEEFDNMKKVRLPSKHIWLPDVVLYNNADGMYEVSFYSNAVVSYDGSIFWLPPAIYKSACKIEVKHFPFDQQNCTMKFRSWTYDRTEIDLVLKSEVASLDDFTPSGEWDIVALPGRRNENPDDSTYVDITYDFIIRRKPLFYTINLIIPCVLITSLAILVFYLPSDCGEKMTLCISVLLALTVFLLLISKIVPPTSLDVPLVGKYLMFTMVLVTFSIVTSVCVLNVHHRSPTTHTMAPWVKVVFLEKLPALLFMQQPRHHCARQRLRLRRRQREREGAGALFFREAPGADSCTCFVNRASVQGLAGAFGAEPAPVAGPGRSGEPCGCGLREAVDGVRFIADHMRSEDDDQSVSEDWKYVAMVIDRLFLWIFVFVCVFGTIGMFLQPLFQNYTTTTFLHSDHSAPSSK
Method: (§1) Figure 1 Inhibitory effect of (-)-231C on ACh-induced currents in X. laevis oocytes expressing recombinant nicotinic receptors. Currents were recorded in the voltage-clamp mode at -60 mV. Concentrations of ACh used were 1 μM for the α4β2 receptor and 100 μM for the α7 receptor. For test responses, oocytes were preincubated with (-)-231C for 3 min and then exposed to ACh with (-)-231C. A, representative traces showing the ACh-elicited currents in the absence and presence of (-)-231C (3 μM). Horizontal bars indicate the period of perfusion with ACh for 5 s. Vertical scale bars represent 0.5 μA on the α4β2 receptor, and 0.1 μA on the α7 receptor. B, concentration-response curves for (-)-231C on recombinant nicotinic receptors. Current responses to ACh in the presence of (-)-231C in each oocyte were normalized to the ACh responses (control responses) recorded in the same oocytes. Values represent the mean ± S.E.M. for five to six separate experiments.
as §1, with “Figure 2” for “Figure 1”, “of (-)-221I” for “of (-)-231C”, “with (-)-221I” for “with (-)-231C”, “with (-)-221I.” for “with (-)-231C.”, “for (-)-221I” for “for (-)-231C”, “five” for “five to six”
as §1, with “Figure 3” for “Figure 1”, “of (-)-epi-193E” for “of (-)-231C”, “with (-)-epi-193E” for “with (-)-231C”, “with (-)-epi-193E.” for “with (-)-231C.”, “for (-)-epi-193E” for “for (-)-231C”, “five” for “five to six”
(§2) Xenopus laevis oocytes were prepared as described previously. In brief, stage V-VI oocytes were isolated and microinjected with cDNAs encoding nicotinic receptor subunit into the nucleus. The α7 subunit cDNA was injected alone, whereas the mixture of α4 and β2 subunit cDNAs was injected in a ratio of 1:1. Oocytes were cultured at 19 °C for 3-7 days. An oocyte was placed in a tube-like chamber in which Ringer’s solution (82.5 mM NaCl, 2.5 mM KCl, 2.5 mM CaCl2, 1 mM MgCl2, and 5 mM HEPES, pH 7.4) containing 1 µM atropine was perfused by gravity (15 ml/min). Current responses were recorded under two-electrode voltage-clamp method. To apply a pulse of acetylcholine (ACh) to the oocyte, the perfusion fluid was switched to solution containing ACh, using a three-way Teflon solenoid valve (Parker Hannifin Corp., General Valve Division, Fairfield, NJ) controlled by a PC computer with pClamp7 software (Axon Instruments, Union City, CA). […]

α7 nicotinic receptor = target: T2, α7 nicotinic receptor (Homo sapiens, UniProt P36544); experiment: Two-electrode voltage-clamp recording of ACh-induced currents in X. laevis oocytes expressing recombinant α7 nicotinic receptor; format: cell-based; conditions: for fold higher potency for blockade of α7 than of α4β2 receptor: ratio of IC50 values, α7 over α4β2
T2 construct: expressed in transfected cells; host or cells: Xenopus laevis oocytes (nuclear cDNA injection)
T2 sequence (P36544 23-502): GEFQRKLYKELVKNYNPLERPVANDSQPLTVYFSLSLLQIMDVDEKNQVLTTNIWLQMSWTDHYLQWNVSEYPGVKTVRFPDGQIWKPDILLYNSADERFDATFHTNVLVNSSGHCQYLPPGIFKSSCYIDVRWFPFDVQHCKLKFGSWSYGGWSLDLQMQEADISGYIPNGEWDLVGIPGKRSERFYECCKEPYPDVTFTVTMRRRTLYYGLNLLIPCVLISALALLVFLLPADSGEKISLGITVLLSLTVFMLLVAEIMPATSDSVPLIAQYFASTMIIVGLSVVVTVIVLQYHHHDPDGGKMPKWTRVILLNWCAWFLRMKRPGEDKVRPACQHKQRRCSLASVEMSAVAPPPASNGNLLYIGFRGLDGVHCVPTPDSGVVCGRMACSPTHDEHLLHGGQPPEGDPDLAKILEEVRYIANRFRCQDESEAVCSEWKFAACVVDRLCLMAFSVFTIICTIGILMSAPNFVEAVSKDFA
Method: as §1
as §1, with “Figure 2” for “Figure 1”, “of (-)-221I” for “of (-)-231C”, “with (-)-221I” for “with (-)-231C”, “with (-)-221I.” for “with (-)-231C.”, “for (-)-221I” for “for (-)-231C”, “five” for “five to six”
as §1, with “Figure 3” for “Figure 1”, “of (-)-epi-193E” for “of (-)-231C”, “with (-)-epi-193E” for “with (-)-231C”, “with (-)-epi-193E.” for “with (-)-231C.”, “for (-)-epi-193E” for “for (-)-231C”, “five” for “five to six”
as §2

[2] = system: nicotinic acetylcholine receptors; design: method as in PMID 1815137; conditions: cited from earlier work
α4β2 nicotinic receptor [3] = target: T1, α4β2 nicotinic receptor; design: method as in PMID 15258256; conditions: cited from earlier work

| Structure (SMILES) | IC50 (α4β2 nicotinic receptor [1]) [µM] | IC50 (α7 nicotinic receptor) [µM] | fold higher potency for blockade of α7 than of α4β2 receptor (α7 nicotinic receptor) [fold] | mode of action at nicotinic receptors [2] | further results |
| --- | --- | --- | --- | --- | --- |
| CCC=CCC1CCC(CC)C2CCCN12 (single isomer, unassigned; (-)) [(-)-221I] | 23.1 | 4.4 | 5.3 | – | – |
| C=CCC1CCC(CC)C2CCCN12 (single isomer, unassigned; (-)) [(-)-epi-193E] | 18 | 9.1 | 2.0 | – | – |
| CCCCC[C@@H]1CC[C@@H](C)[C@@H]2CCCN12 [(-)-209B, (5S,8R,9S)-(-)-8-Methyl-5-pentyloctahydroindolizine] | – | – | – | noncompetitive nicotinic blockers | – |
| C#C/C=C\CCC[C@@H]1CC[C@@H](C)[C@@H]2CCCN12 [(-)-231C, (5R,8R,9S)-(-)-5-Hept-4-en-6-ynyl-8-methyloctahydroindolizine] | 1.5 | 10.7 | – | – | peak amplitude of ACh-elicited currents (α4β2 nicotinic receptor [1]; 3 μM compound, oocytes expressing α4β2 receptor): greatly decreased; fold higher sensitivity/potency for blockade of α4β2 than of α7 receptor (α4β2 nicotinic receptor [1]; ratio of IC50 values, α4β2 over α7): 7.0 fold and 6- to 7 fold; ACh-elicited responses (α7 nicotinic receptor; 3 μM compound, oocytes expressing α7 receptor): not strongly affected |
| CC/C=C\CCC[C@@H]1CC[C@@H](C)[C@@H]2CCCN12 [(-)-235B", (5R,8R,9S)-(-)-5-Hept-4-enyl-8-methyloctahydroindolizine] | – | – | – | noncompetitive nicotinic blockers | potency in blocking the α4β2 receptor relative to (-)-231C (α4β2 nicotinic receptor [1]; fold greater than (-)-231C, previous (ref 3) versus present data): approximately 20 fold; selectivity for blockade of α4β2 over α7 receptor (α4β2 nicotinic receptor [3]; previous data): 6- to 7 fold; effect at the α4β2 nicotinic receptor (α4β2 nicotinic receptor [3]; several nicotinic receptor subtypes tested): selective and potent blocking effects; potency at α4β2 receptor compared with dihydro-β-erythroidine (α4β2 nicotinic receptor [3]; versus classical α4β2 competitive antagonist): comparable |

— paper PMC2164953, “Flexible synthesis of poison-frog alkaloids of the 5,8-disubstituted indolizidine-class. II: Synthesis of (-)-209B, (-)-231C, (-)-233D, (-)-235B", (-)-221I, and an epimer of 193E and pharmacological effects at neuronal nicotinic acetylcholine receptors” (Beilstein Journal of Organic Chemistry, 2007)
